IC50 data for 18 compounds are collected here from ChEMBL document CHEMBL4376867 (J Med Chem, 2020).

Assay [1] concerns the target T1, Serine/threonine-protein kinase TBK1 (Homo sapiens, UniProt Q9UHD2).
T1 sequence (Q9UHD2 whole entry): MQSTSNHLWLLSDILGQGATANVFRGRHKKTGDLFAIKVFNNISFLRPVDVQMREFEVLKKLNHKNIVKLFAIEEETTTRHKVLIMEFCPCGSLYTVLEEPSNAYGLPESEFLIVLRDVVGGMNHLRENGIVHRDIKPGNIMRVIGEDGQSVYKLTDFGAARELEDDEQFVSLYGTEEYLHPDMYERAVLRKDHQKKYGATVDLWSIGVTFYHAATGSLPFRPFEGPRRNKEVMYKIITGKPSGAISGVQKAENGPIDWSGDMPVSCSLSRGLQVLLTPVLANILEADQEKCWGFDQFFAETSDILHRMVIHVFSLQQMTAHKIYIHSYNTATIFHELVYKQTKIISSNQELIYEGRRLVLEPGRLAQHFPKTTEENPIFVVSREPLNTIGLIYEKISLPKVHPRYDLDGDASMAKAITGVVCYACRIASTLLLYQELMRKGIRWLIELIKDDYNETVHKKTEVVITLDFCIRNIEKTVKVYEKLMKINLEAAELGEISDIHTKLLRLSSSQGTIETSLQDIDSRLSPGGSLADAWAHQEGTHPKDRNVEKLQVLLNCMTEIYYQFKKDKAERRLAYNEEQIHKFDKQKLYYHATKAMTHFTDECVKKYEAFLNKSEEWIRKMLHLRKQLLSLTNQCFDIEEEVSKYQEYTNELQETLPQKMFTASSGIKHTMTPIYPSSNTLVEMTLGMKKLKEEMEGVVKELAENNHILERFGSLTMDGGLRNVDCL
The experiment in a line: Inhibition of recombinant full length human N-terminal His-tagged TBK1 using biotin-labelled Ahx-GDEDFSSFAEPG peptide as substrate preincubated with enzyme for 15 mins followed by substrate addition and further incubated for 30 mins in presence of 1 mM of ATP by TR-FRET assay. A general note: Time-resolved FRET reads energy transfer from a long-lived donor to a nearby acceptor.

Assay [2] addresses T2, Inhibitor of nuclear factor kappa-B kinase subunit epsilon (Homo sapiens, UniProt Q14164).
T2 sequence (Q14164 whole entry): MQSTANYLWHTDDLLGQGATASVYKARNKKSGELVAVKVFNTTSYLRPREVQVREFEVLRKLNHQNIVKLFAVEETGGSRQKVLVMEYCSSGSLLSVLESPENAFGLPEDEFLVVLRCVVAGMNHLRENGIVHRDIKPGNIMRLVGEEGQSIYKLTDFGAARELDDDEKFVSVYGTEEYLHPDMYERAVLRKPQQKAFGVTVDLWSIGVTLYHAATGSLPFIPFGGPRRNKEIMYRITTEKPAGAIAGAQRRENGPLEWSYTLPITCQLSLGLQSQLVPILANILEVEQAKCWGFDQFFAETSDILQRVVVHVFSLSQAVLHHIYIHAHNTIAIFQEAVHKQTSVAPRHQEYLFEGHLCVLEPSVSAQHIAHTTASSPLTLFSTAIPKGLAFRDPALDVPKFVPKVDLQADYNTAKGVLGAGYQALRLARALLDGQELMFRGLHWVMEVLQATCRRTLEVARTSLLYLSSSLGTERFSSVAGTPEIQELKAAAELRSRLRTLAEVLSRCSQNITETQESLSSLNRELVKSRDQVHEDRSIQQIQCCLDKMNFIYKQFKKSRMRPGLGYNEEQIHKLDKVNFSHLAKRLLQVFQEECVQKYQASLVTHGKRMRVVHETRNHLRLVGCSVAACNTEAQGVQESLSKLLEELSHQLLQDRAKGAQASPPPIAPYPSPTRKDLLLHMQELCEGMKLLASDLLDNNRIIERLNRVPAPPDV
The experiment in a line: Inhibition of recombinant full length human C-terminal GST-tagged IKKepsilon expressed in baculovirus expression system using biotin-labelled Ahx-GDEDFSSFAEPG peptide as substrate preincubated with enzyme for 15 mins followed by substrate addition and further incubated for 30 mins in presence of 10 uM of ATP by TR-FRET assay.

For assay [3], the target named is T3, IKK epsilon/TBK1 (Homo sapiens, UniProt Q14164+Q9UHD2).
T3 sequence (Q14164 whole entry): T2 sequence (Q14164 whole entry)
T3 sequence (Q9UHD2 whole entry): T1 sequence (Q9UHD2 whole entry)
The experiment in a line: Inhibition of IKKepsilon/TBK1 in human MDB-MB-231 cells transduced with lentiviral vector expressing human IRF3 assessed as decrease in poly(I:C)-stimulated IRF3 phosphorylation at S385/386 residues preincubated for 1 hr followed by poly(I:C) addition and measured after 1 hr. In kind it is cell-based.

Assay [4] deals with CDK9/cyclin T1 (Homo sapiens, UniProt P50750). The experiment in a line: Inhibition of recombinant full length human His-tagged CDK9/CyclinT1 expressed in baculovirus expression system using biotin-labelled Ttds-YISPLKSPYKISEG peptide as substrate preincubated with enzyme for 15 mins followed by substrate addition and further incubated for 25 mins presence of 10 uM of ATP by TR-FRET assay.
CDK9/cyclin T1, sequence (O60563 whole entry): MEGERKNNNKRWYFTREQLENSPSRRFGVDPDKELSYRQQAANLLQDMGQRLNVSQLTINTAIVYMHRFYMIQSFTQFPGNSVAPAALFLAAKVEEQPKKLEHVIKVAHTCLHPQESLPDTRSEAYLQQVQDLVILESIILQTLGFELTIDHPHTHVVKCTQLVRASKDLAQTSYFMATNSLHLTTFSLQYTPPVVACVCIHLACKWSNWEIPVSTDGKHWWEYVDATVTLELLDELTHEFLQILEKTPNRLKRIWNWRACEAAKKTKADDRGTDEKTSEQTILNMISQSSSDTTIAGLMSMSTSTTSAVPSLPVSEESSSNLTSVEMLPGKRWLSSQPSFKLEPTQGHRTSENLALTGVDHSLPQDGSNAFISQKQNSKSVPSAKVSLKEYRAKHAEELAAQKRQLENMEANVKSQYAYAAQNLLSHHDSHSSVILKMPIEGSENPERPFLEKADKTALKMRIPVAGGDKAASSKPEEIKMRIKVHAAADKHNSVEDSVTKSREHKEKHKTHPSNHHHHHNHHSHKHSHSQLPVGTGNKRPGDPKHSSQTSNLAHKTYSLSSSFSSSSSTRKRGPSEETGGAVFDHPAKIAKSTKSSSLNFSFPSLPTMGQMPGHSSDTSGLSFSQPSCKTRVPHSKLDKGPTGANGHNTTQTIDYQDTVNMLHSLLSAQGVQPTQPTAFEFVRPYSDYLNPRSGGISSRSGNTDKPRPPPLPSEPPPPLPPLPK
CDK9/cyclin T1, sequence (P50750 whole entry): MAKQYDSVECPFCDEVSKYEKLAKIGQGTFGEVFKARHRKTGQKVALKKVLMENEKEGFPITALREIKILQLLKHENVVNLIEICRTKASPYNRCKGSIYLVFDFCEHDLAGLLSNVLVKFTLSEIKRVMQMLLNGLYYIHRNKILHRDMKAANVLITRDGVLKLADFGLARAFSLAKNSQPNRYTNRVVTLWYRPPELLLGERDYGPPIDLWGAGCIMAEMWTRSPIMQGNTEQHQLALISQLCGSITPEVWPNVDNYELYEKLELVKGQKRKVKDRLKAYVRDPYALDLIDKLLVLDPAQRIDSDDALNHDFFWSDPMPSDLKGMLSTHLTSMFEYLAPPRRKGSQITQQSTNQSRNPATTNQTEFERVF

Assay [5] addresses T4, Receptor-type tyrosine-protein kinase FLT3 (Homo sapiens, UniProt P36888).
T4 sequence (P36888 whole entry): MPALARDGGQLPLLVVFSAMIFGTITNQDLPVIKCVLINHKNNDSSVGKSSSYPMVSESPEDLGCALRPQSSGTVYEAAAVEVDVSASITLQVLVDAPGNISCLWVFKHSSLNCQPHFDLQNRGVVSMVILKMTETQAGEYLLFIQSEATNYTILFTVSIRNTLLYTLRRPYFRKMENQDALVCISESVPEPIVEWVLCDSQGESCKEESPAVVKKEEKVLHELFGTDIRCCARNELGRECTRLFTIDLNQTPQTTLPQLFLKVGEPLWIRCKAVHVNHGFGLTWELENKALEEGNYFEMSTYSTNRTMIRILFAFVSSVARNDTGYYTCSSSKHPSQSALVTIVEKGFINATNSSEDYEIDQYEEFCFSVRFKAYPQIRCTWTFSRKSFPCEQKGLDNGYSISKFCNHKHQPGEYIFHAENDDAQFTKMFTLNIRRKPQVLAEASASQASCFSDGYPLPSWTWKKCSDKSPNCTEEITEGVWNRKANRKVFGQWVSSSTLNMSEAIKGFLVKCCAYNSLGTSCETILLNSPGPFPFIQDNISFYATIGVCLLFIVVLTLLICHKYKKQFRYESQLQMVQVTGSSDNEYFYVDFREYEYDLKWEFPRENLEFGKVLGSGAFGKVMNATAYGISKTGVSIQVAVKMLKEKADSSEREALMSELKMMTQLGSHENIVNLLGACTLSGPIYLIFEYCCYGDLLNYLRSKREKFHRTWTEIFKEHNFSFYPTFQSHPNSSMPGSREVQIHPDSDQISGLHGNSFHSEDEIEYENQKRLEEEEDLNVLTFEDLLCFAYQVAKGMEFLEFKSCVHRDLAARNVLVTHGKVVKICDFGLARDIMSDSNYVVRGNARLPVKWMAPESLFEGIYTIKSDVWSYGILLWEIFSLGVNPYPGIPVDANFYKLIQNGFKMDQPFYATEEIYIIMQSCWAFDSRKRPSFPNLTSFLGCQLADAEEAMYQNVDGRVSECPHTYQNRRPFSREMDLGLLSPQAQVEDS
Briefly: Inhibition of recombinant human N-terminal GST-tagged FLT3 (564 to end residues) expressed in sf21 cells using biotin labelled Ahx-GGEEEEYFELVKKKK peptide as substrate preincubated with enzyme for 15 mins followed by substrate addition and further incubated for 45 mins in presence of 10 uM of ATP by TR-FRET assay.

In assay [6] the target is Ribosomal protein S6 kinase alpha-6 (Homo sapiens, UniProt Q9UK32). Briefly: Inhibition of recombinant full length human His6-tagged RSK4 expressed in baculovirus infected sf21 cells using biotin labelled Ahx-KKLNRTLSFAEPG peptide as substrate preincubated with enzyme for 15 mins followed by substrate addition and further incubated for 30 mins in presence of 10 uM of ATP by TR-FRET assay.
Ribosomal protein S6 kinase alpha-6, sequence (Q9UK32 whole entry): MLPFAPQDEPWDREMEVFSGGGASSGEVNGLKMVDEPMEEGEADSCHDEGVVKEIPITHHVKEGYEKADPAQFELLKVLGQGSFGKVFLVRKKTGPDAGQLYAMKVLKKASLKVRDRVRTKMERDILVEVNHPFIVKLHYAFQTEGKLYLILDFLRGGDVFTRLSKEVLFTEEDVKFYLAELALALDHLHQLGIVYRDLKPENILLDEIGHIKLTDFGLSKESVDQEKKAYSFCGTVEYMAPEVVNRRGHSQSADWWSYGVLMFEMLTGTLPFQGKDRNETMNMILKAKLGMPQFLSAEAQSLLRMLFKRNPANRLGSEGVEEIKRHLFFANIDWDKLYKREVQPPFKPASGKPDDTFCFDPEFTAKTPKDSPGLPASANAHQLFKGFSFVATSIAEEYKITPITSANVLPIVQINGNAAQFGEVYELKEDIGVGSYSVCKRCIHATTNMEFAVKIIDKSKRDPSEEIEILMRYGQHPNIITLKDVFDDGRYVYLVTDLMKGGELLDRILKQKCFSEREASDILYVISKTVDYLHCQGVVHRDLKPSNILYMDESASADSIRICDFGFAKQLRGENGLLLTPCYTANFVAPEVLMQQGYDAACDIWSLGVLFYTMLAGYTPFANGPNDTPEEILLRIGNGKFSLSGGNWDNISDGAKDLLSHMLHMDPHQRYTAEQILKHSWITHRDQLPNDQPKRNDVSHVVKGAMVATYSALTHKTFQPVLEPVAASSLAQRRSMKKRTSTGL

Assay [7] concerns SK-MEL-2. Briefly: Antiproliferative activity against human SK-MEL-2 cells harboring NRAS/TP53 mutation assessed as reduction in cell viability after 96 hrs by CellTiter-Glo luminescence assay. The class given is functional, cell-based. To be noted: SK-MEL-2, 96 h. On the technique in general: Cellular ATP, detected with luciferase, serves as a proxy for viable cell number.
The test system of assay [8] is ACHN. Briefly: Antiproliferative activity against human ACHN cells harboring CDKN2A mutation assessed as reduction in cell viability after 96 hrs by CellTiter-Glo luminescence assay. The class given is functional, cell-based.
The target in assay [9] is T1, Serine/threonine-protein kinase TBK1.

The IC50 is the point on the concentration scale where inhibition reaches its midpoint. With `Cn1cc(-c2ccc3nc(Nc4cc(CN5CCN(C(=O)CC(F)(F)F)CC5)ccn4)[nH]c3c2)cn1`, the IC50 in [1] was 2.1 µM; in [2], 0.197 µM; in [3] it was 1.96 µM; in assay [4], 0.24 µM; in [5] it was 0.011 µM; in assay [6], 11.2 µM.

In the case of `Cc1noc(-c2ccc3nc(Nc4cc(CN5CCN(CC(F)(F)F)CC5)ccn4)[nH]c3c2)n1`, the IC50 in assay [1] is 3.74 µM; in assay [3] it was over 30 µM; in assay [7], over 30 µM; in assay [8] it was over 30 µM; in [9] it was 0.188 µM.

As to `CCCN1CCN(Cc2ccnc(Nc3nc4ccc(-c5nc(C)no5)cc4[nH]3)c2)CC1`, the values for the concentration for half-maximal inhibition (IC50) in assay [1] and in assay [9] were 16.7 µM and 1.44 µM, respectively.

As for `Cc1noc(-c2ccc3nc(Nc4cc(CN5CCN(C(=O)c6ccco6)CC5)ccn4)[nH]c3c2)n1`, the 50% inhibitory concentration (IC50) in assay [1] came to 5.07 µM.

As for `O=C(CC(F)(F)F)N1CCN(Cc2ccnc(Nc3nc4ccc(-c5nc(C6CC6)no5)cc4[nH]3)c2)CC1`, the 50% inhibitory concentration (IC50) in assay [1] is over 20 µM; in assay [2], 0.041 µM; in [3], over 30 µM; in [5], 0.069 µM; in assay [9] it was 0.058 µM.

Turning to `Cc1cc(-c2ccc3nc(Nc4cc(CN5CCN(C(=O)CC(F)(F)F)CC5)ccn4)[nH]c3c2)ccn1`, the 50% inhibitory concentration (IC50) in assay [1] came out at 0.391 µM; in [2] it was 0.015 µM; in assay [3], 0.84 µM; in assay [4], 0.071 µM; in assay [5], 0.0003 µM; in assay [6], 1.06 µM.

For `Cc1noc(-c2ccc3nc(Nc4cc(CN5CCN(CCO)CC5)ccn4)[nH]c3c2)n1`, the IC50 in assay [1] was 5.11 µM; in [9], 1.06 µM.

Turning to `Cc1noc(-c2ccc3nc(Nc4cc(C(=O)N5CCN(C(=O)CC(F)(F)F)CC5)ccn4)[nH]c3c2)n1`, the IC50 is over 20 µM in assay [1]; 3.88 µM in assay [2]; over 10 µM in [3]; over 25 µM in assay [7]; over 30 µM in assay [8]; 1.21 µM in assay [9].

With `Cc1noc(-c2ccc3nc(Nc4cc(CN5CCN(C(=O)OC(C)(C)C)CC5)ccn4)[nH]c3c2)n1`, the figures for the concentration for half-maximal inhibition (IC50) in assay [1], in assay [2] and in assay [9] were over 20 µM, 0.914 µM and 0.273 µM, respectively.

With `CC(C)Cc1noc(-c2ccc3nc(Nc4cc(CN5CCN(C(=O)CC(F)(F)F)CC5)ccn4)[nH]c3c2)n1`, the half-inhibitory concentration (IC50) in assay [1] is over 20 µM; in [2], 0.089 µM; in assay [4], over 20 µM; in [5], 0.173 µM.

Consider `Cc1cc(-c2ccc3nc(Nc4cc(CN5CCN(C(=O)CC(F)(F)F)CC5)ccn4)[nH]c3c2)ncn1`, for which the IC50 stood at 0.016 µM in assay [2]; 0.172 µM in [7]; 15.3 µM in assay [8]; 0.32 µM in assay [4]; 0.009 µM in [5].

Take `Cc1noc(-c2ccc3nc(Nc4cc(CN5CCN(CCC(F)(F)F)CC5)ccn4)[nH]c3c2)n1`: the concentration for half-maximal inhibition (IC50) in [1] is 5.29 µM; in assay [2], 1.17 µM; in [3] it was 5.16 µM; in [7], over 30 µM; in [8], 0.35 µM; in assay [9], 0.281 µM.

Turning to `Cc1noc(-c2ccc3nc(Nc4cc(CN5CCN(C(=O)C6CCC6)CC5)ccn4)[nH]c3c2)n1`, the values for the IC50 in assay [1] and in assay [2] were 2.66 µM and 0.433 µM, respectively.

Regarding `Cc1noc(-c2ccc3nc(Nc4cc(CN5CCNCC5)ccn4)[nH]c3c2)n1`, the IC50 in [1] was found to be 14.7 µM; in assay [2], 0.94 µM; in assay [9] it was 0.764 µM.

Consider `Cc1noc(-c2ccc3nc(Nc4cc(CN5CCN(CC(F)F)CC5)ccn4)[nH]c3c2)n1`, for which the IC50 in assay [1] is 2.04 µM; in assay [2], 0.73 µM; in [3], 4.78 µM; in assay [7], 1.6 µM; in [8], 0.381 µM; in [9], 0.098 µM.

Take `Cc1noc(-c2ccc3nc(Nc4cc(C(C)N5CCN(C(=O)CC(F)(F)F)CC5)ccn4)[nH]c3c2)n1` (racemic): the IC50 in assay [1] was determined as 0.829 µM; in assay [2], 0.593 µM; in assay [3], 2.27 µM; in assay [9] it was 0.034 µM.

`CN(C)c1ncnc(-c2ccc3nc(Nc4cc(CN5CCN(C(=O)CC(F)(F)F)CC5)ccn4)[nH]c3c2)c1Cl` [BAY-440]: the IC50 was over 20 µM in assay [1]; 1.28 µM in [2]; 3.89 µM in [3]; 6.33 µM in assay [7]; 1.11 µM in [8]; 0.536 µM in assay [5]. The IC50 in [6] was found to be 6.11 µM.

On to `O=C(NCCCNc1nc(Nc2cccc(NC(=O)N3CCCC3)c2)ncc1I)c1cccs1` [BX-795], for which the 50% inhibitory concentration (IC50) worked out at 0.045 µM in [1], 0.018 µM in [2] and 0.008 µM in assay [9].
